Assay results reported in US6818653B1, “6,7-Disubstituted -5,8-quinolinedione derivatives as an antifungal agent” (Il Jin Copper Foil Corp., priority 2002, dated 2004).
Values after ≈ are worked out from the molar mass of the structure shown. Where two headings read alike, the source gives them in different places.

Experiments:
[1] = test system: Candida albicans ATCC10231; assay: MIC by solid medium dilution method; format: cell-based; settings: Sabouraud's agar, 3 days at 30° C.; for MIC: Candida albicans, ATCC10231, 72 h
Method: (§1) The minimum inhibitory concentration (MIC), which indicates the lowest concentration of the active ingredient in the growth medium, was determined by solid medium dilution method. Pathogens strains used are Candida albicans ATCC10231, Candida glabrata ATCC2001, Candida tropicalis ATCC8775, Candida parasilosis ATCC22019, Cryptococuss neoformans KCTC7223.
(§2) 4 mg of a test compound was dissolved in 2 ml of dimethylfulfoxide(DMSO) to produce solutions having a concentration of 2 mg/ml for use and serial two-fold dilution was prepared. The test medium was Sabouraud's agar. 50 μl aliquot of serial two-fold dilution was added to 1 ml of agar medium in 10×1.2 cm petri dishes to be 100, 50, 25, 12.5 6.3, 1.6, and 0.8 μg/ml of test compound concentration and the slant was prepared by tilting the petri dishes. The MIC value without containing a test compound was determined in order to test an effect of a solvent to an antifungal activity. Hyphae with a diameter of 2 mm were inoculated with 2×10^5 CFU. After the medium was cultured for 3 days at 30° C., the MIC values were determined. Control drugs were fluconazole and ketoconazole.

[2] = test system: Candida glabrata ATCC2001; assay: MIC by solid medium dilution method; format: cell-based; settings: Sabouraud's agar, 3 days at 30° C.; for MIC: Nakaseomyces glabratus, ATCC2001, 72 h
Method: as §1, §2

[3] = test system: Candida tropicalis ATCC8775; assay: MIC by solid medium dilution method; format: cell-based; settings: Sabouraud's agar, 3 days at 30° C.; for MIC: Candida tropicalis, ATCC8775, 72 h, read-out: MIC C. tropicallis
Method: as §1, §2

[4] = test system: Candida parasilosis ATCC22019; assay: MIC by solid medium dilution method; format: cell-based; settings: Sabouraud's agar, 3 days at 30° C.; for MIC: 72 h, read-out: MIC C. parapsilosis
Method: as §1, §2

[5] = test system: Cryptococuss neoformans KCTC7223; assay: MIC by solid medium dilution method; format: cell-based; settings: Sabouraud's agar, 3 days at 30° C.; for MIC: Cryptococcus neoformans, KCTC7223, 72 h
Method: as §1, §2

C. albicans = assay: ED50 in rats infected with C. albicans via tail vein; format: in vivo, rat; settings: for ED50: Candida albicans, read-out: ED50 ± SD (n = 5)
Method: C. albicans (1×10^7) isolated was inoculated to Sabouraud's agar, suspended in a physiological saline solution, and injected into tail vein of a rat. Strains to kill a rat within 48 hours were selected. C. albicans (2×10^6 which is concentration to kill a rat within 48 hours) suspended in a physiological saline solution was injected and infected into tail veins of 125 rats. Each concentration (10, 2, 0.5, 0.1, 0.025 mg/kg) of the compounds of table 3 was administered to each 10 rats. After infecting with Candida strain, each compound was administered to each 10 rats. Fluconazol as a control drug was also administered with 10, 2, 0.5 and 0.1 mg/kg of concentrations. A physiological saline solution containing 0.2% tween 20 was administered as a control group.

[6] = rat infected with C. albicans 2×10^6 via tail vein

Compound	MIC [1]	MIC [2]	MIC [3]	MIC [4]	MIC [5]	ED50 (C. albicans)	MIC C. albicans [1]	MIC C. glabrata [2]	MIC C. tropicallis [3]	MIC C. parapsilosis [4]	MIC C. neoformans [5]	ED50 (C. albicans; [6])	ED50 ± SD (n = 5) (C. albicans; [6])
O=C1C(Nc2ccc(Br)cc2)=C(Br)C(=O)c2ncccc21 [Compound No. 3, 6-[(N-4-bromophenyl)amino]-7-bromo-5,8-quinolindion]	6.3 µg/mL (≈ 15.4 µM)	6.3 µg/mL (≈ 15.4 µM)	12.5 µg/mL (≈ 30.6 µM)	25 µg/mL (≈ 61.3 µM)	6.3 µg/mL (≈ 15.4 µM)	0.06 mg/kg							
CSC1=C(Nc2ccc(Cl)cc2)C(=O)c2cccnc2C1=O [compound 6, 6-[(N-4-chlorophenyl)amino]-7-methylmercapto-5,8-quinolindion]	12.5 µg/mL (≈ 37.8 µM)	6.3 µg/mL (≈ 19 µM)	< 0.8 µg/mL	25 µg/mL (≈ 75.6 µM)	12.5 µg/mL (≈ 37.8 µM)								
CSC1=C(Nc2ccc(F)c(F)c2F)C(=O)c2cccnc2C1=O [compound 5, 6-[(N-2,3,4-trifulorophenyl)amino]-7-methylmercapto-5,8-quinolindion]							1.6 µg/mL (≈ 4.57 µM)	3.2 µg/mL (≈ 9.13 µM)	3.2 µg/mL (≈ 9.13 µM)	25.0 µg/mL (≈ 71.4 µM)	6.3 µg/mL (≈ 18 µM)		
CSC1=C(Nc2ccc(I)cc2)C(=O)c2cccnc2C1=O [compound 7, 6-[(N-4-iodophenyl)amino]-7-methylmercapto-5,8-quinolindion]	6.3 µg/mL (≈ 14.9 µM)	3.2 µg/mL (≈ 7.58 µM)	3.2 µg/mL (≈ 7.58 µM)	25 µg/mL (≈ 59.2 µM)	3.2 µg/mL (≈ 7.58 µM)								
N#CSC1=C(Nc2ccc(Br)cc2)C(=O)c2cccnc2C1=O [compound 9, 6-[(N-4-bromophenyl)amino]-7-thiocyano-5,8-quinolindion]	< 0.8 µg/mL	6.3 µg/mL (≈ 16.3 µM)	< 0.8 µg/mL	< 0.8 µg/mL	3.2 µg/mL (≈ 8.29 µM)								
CCCCCCCCCSC1=C(Cl)C(=O)c2ncccc2C1=O [compound 20, 6-n-nonylmercapto-7-chloro-5,8-quinolindion]	50 µg/mL (≈ 142 µM)	50 µg/mL (≈ 142 µM)	6.3 µg/mL (≈ 17.9 µM)	25 µg/mL (≈ 71 µM)	25 µg/mL (≈ 71 µM)								
OC(Cn1cncn1)(Cn1cncn1)c1ccc(F)cc1F [Fluconazole, fluconazole, reference compound]	25 µg/mL (≈ 81.6 µM)	25 µg/mL (≈ 81.6 µM)	100 µg/mL (≈ 327 µM)	12.5 µg/mL (≈ 40.8 µM)	25 µg/mL (≈ 81.6 µM)							6 mg/kg	
CCCCCCCCSC1=C(Cl)C(=O)c2ncccc2C1=O [compound 19, 6-n-octylmercapto-7-chloro-5,8-quinolindion]	12.5 µg/mL (≈ 37 µM)	25 µg/mL (≈ 74 µM)	12.5 µg/mL (≈ 37 µM)	3.2 µg/mL (≈ 9.47 µM)	12.5 µg/mL (≈ 37 µM)								
O=C1C(Nc2cc(Cl)cc(Cl)c2)=C(Cl)C(=O)c2ncccc21 [Compound No. 2, 6-[(N-3,5-dichlorophenyl)amino]-7-chloro-5,8-quinolindion]							12.5 µg/mL (≈ 35.4 µM)	12.5 µg/mL (≈ 35.4 µM)	25.0 µg/mL (≈ 70.7 µM)	6.3 µg/mL (≈ 17.8 µM)	12.5 µg/mL (≈ 35.4 µM)		0.07 mg/kg
CCCCCCCSC1=C(Cl)C(=O)c2ncccc2C1=O [compound 18, 6-n-heptylmercapto-7-chloro-5,8-quinolindion]	6.3 µg/mL (≈ 19.5 µM)	50 µg/mL (≈ 154 µM)	12.5 µg/mL (≈ 38.6 µM)	6.3 µg/mL (≈ 19.5 µM)	12.5 µg/mL (≈ 38.6 µM)								
CCCSC1=C(Cl)C(=O)c2ncccc2C1=O [compound 14, 6-n-propylmercapto-7-chloro-5,8-quinolindion]	12.5 µg/mL (≈ 46.7 µM)	50 µg/mL (≈ 187 µM)	50 µg/mL (≈ 187 µM)	12.5 µg/mL (≈ 46.7 µM)	3.2 µg/mL (≈ 12 µM)								
O=C1C(Nc2ccc(Cl)cc2)=C(Br)C(=O)c2ncccc21 [Compound No. 1, 6-[(N-4-chlorophenyl)amino]-7-bromo-5,8-quinolindion]	6.3 µg/mL (≈ 17.3 µM)	12.5 µg/mL (≈ 34.4 µM)	12.5 µg/mL (≈ 34.4 µM)	25 µg/mL (≈ 68.8 µM)	12.5 µg/mL (≈ 34.4 µM)	0.06 mg/kg							
CCCCSC1=C(Cl)C(=O)c2ncccc2C1=O [compound 15, 6-n-butylmercapto-7-chloro-5,8-quinolindion]	25 µg/mL (≈ 88.7 µM)	12.5 µg/mL (≈ 44.4 µM)	100 µg/mL (≈ 355 µM)	25 µg/mL (≈ 88.7 µM)	12.5 µg/mL (≈ 44.4 µM)								
N#CSC1=C(Nc2cc(F)cc(F)c2)C(=O)c2cccnc2C1=O [compound 12, 6-[(N-3,5-difulorophenyl)amino]-7-thiocyano-5,8-quinolindion]							12.5 µg/mL (≈ 36.4 µM)	12.5 µg/mL (≈ 36.4 µM)	3.2 µg/mL (≈ 9.32 µM)	1.6 µg/mL (≈ 4.66 µM)	<0.8 µg/mL		
6-n-hecxylmercapto-7-chloro-5,8-quinolindion [compound 17]							25 µg/mL	50 µg/mL	50 µg/mL	25 µg/mL	12.5 µg/mL		
CC(=O)c1ccc(NC2=C(Cl)C(=O)c3ncccc3C2=O)cc1 [Compound No. 4, 6-[(N-4-acetophenyl)amino]-7-chloro-5,8-quinolindion]							1.6 µg/mL (≈ 4.9 µM)	3.2 µg/mL (≈ 9.79 µM)	3.2 µg/mL (≈ 9.79 µM)	6.3 µg/mL (≈ 19.3 µM)	12.5 µg/mL (≈ 38.3 µM)		
CC(=O)c1ccc(NC2=C(SC#N)C(=O)c3ncccc3C2=O)cc1 [compound 11, 6-[(N-4-acetophenyl)amino]-7-thiocyano-5,8-quinolindion]							6.3 µg/mL (≈ 18 µM)	25 µg/mL (≈ 71.6 µM)	3.2 µg/mL (≈ 9.16 µM)	3.2 µg/mL (≈ 9.16 µM)	<0.8 µg/mL		
N#CSC1=C(Nc2ccc(I)cc2)C(=O)c2cccnc2C1=O [compound 8, 6-[(N-4-iodophenyl)amino]-7-thiocyano-5,8-quinolindion]	12.5 µg/mL (≈ 28.9 µM)	12.5 µg/mL (≈ 28.9 µM)	12.5 µg/mL (≈ 28.9 µM)	100 µg/mL (≈ 231 µM)	12.5 µg/mL (≈ 28.9 µM)								
CCSC1=C(Cl)C(=O)c2ncccc2C1=O [compound 13, 6-n-ethylmercapto-7-chloro-5,8-quinolindion]							12.5 µg/mL (≈ 49.3 µM)	50 µg/mL (≈ 197 µM)	100 µg/mL (≈ 394 µM)	3.2 µg/mL (≈ 12.6 µM)	6.3 µg/mL (≈ 24.8 µM)		
CCCCCSC1=C(Cl)C(=O)c2ncccc2C1=O [compound 16, 6-n-pentylmercapto-7-chloro-5,8-quinolindion]	3.2 µg/mL (≈ 10.8 µM)	12.5 µg/mL (≈ 42.3 µM)	50 µg/mL (≈ 169 µM)	6.3 µg/mL (≈ 21.3 µM)	25 µg/mL (≈ 84.5 µM)								
N#CSC1=C(Nc2ccc(Cl)cc2)C(=O)c2cccnc2C1=O [compound 10, 6-[(N-4-chlorophenyl)amino]-7-thiocyano-5,8-quinolindion]	12.5 µg/mL (≈ 36.6 µM)	12.5 µg/mL (≈ 36.6 µM)	12.5 µg/mL (≈ 36.6 µM)	100 µg/mL (≈ 293 µM)	6.3 µg/mL (≈ 18.4 µM)								
CC(=O)N1CCN(c2ccc(OCC3COC(Cn4ccnc4)(c4ccc(Cl)cc4Cl)O3)cc2)CC1 (stereo not drawn) [Ketoconazole, ketoconazole, reference compound]	12.5 µg/mL (≈ 23.5 µM)	12.5 µg/mL (≈ 23.5 µM)	12.5 µg/mL (≈ 23.5 µM)	12.5 µg/mL (≈ 23.5 µM)	12.5 µg/mL (≈ 23.5 µM)								
